From patent publication US20020115728A1, “Compositions and methods for treating cardiovascular disorders” (priority 2000, published 2002) come the findings set out here.

Marks after values point to notes of the source that are not given here.

Test [1] concerns plasma lipids obtained from apoE−/− mice. In words: Ex vivo oxidizability of plasma lipids (aqueous peroxyl radical generator). The conditions noted are these: pooled plasma of probucol-treated apoE−/− mice, 5 mM MPH, 37° C. The class given is in vivo. How it is done: Pooled plasma obtained from control (open symbols) or probucol-treated (closed symbols) mice was exposed to 5 mM of the aqueous peroxyl radical generator MPH and incubated under air at 37° C. […] Data shown are mean±SD of a single oxidation experiment performed in triplicate using pooled plasma. Where error bars are not shown, error is smaller than the symbol.
(§1) Plasma was obtained from control and probucol mice and aliquots frozen for subsequent determination of lipids. Separate aliquots were acidified with metaphosphoric acid (5%) to stabilize vitamin C prior to freezing and storage at −80° C. The remainder was pooled appropriately and used for ex vivo oxidation initiated by the peroxyl radical generator AAPH and lipoprotein separation by FPLC with UV280nm detection, as described in J Lipid Res. 1999;40:1104-1112.
Enhanced resistance of plasma lipoproteins to oxidation is often used as a measure of antioxidant efficacy. Therefore, we examined MPH-induced oxidation of pooled plasma from control and treated animals. […] These observations can be explained readily on the basis of tocopherol-mediated peroxidation.

The subject of test [2] is plasma from apoE−/−;LDLr−/− mice. The test is described as follows: Ex vivo plasma lipid peroxidation initiated by aqueous peroxyl radicals (AAPH). Type of test: in vivo. The procedure: Pooled plasma obtained from at least 3 mice receiving control diet (circles) or diet supplemented with bisphenol (squares) were treated with 5 mM AAPH and incubated at 37° C. At the times indicted aliquots were removed and analysed for α-TOH (A) and CE-O(O)H (B). 100% α-TOH levels correspond to 28±3 and 20±2 μM for control and H 212/43 plasma, respectively. Data represents the mean±SD (n=4 independent experiments).
Oxidation of plasma, pooled from=3 mice was carried out by addition of the peroxyl radical generator (final concentrations 5 mM) and incubating the reaction mixture at 37° C. under air. Aliquots (50 μL) of the reaction mixture were removed, extracted in methanol/hexane (1:5, v/v), and the consumption of antioxidants and accumulation of lipid oxidation products determined.

Test [3] concerns tocopherol-mediated peroxidation (TMP). The test is described as follows: Anti-TMP index. Type of test: biochemical.
Test [4] has as its system α-tocopheroxyl radical. In words: Tocopheroxyl radical attenuating ability (TRAA). The class given is biochemical. The conditions noted are these: kobs with (+) or without (−) test compound.
Test [5] has as its system apoE−/− mice. In words: Plasma lipids and antioxidants. The conditions noted are these: 1% probucol, 24 weeks. Type of test: in vivo. How it is done:
(§2) Male C57BL/6J mice, homozygous for the disrupted apoE gene (apoE−/−) were fed standard chow (Lab-Feed, Sydney, Australia) until aged 10 weeks. […] The high fat diet (control and probucol-supplemented) was prepared, according to the specifications of the Harlan Teklad diet TD88137.
as §1
Lipid-soluble antioxidants and lipids were quantified by HPLC as described in FASEB J. 1999;13:667-675. For ascorbate analysis, frozen acidified samples were thawed, diluted with DPBS to adjust the pH to 7.4 and then immediately subjected to HPLC. Plasma triglycerides were determined enzymatically (Boehringer, Mannheim, Germany).
(§3) ApoE−/− mice were fed either a control or probucol-supplemented diet for 24 weeks before aortas and plasma were analysed.

For test [6], the system named is cholesterol-fed, ballooned New Zealand White rabbits. In words: Atherosclerosis/restenosis and lipid oxidation in cholesterol-fed, ballooned rabbits. Type of test: in vivo. The following applies: 2% cholesterol diet with 1% probucol, 6 weeks. The procedure: Aortic endothelial denudation was performed at week 3 by withdrawing an inflated 3F Fogarty balloon embolectomy catheter three times down the length of the aorta. Plasma was obtained from animals as described in Example 1 at the start and end of the study. At the end of the study period, individual aortas were removed and prepared for HPLC analysis as in Example 1. Lipids and antioxidants including probucol and its metabolites, bisphenol and diphenoquinone, were analyzed by RP-HPLC as described previously. Aortas designated for histology were perfusion-fixed with 4% (v/v) formaldehyde and transferred into formalin. Cross-sections (2-3 μm thick) were prepared and stained with Weigert's hematoxylin-van Gieson, and the intima to media ratio determined for three sections.

Test [7] has as its system aortas of apoE−/− mice. The test is described as follows: Aortic lipids, oxidised lipids and antioxidants by HPLC of aortic homogenates. Type of test: in vivo. The conditions noted are these: 24 weeks. The procedure:
as §2
After bleeding, mice were gravity-perfused for 5 min with DPBS containing 20 μM BHT and 1 mM EDTA (Buffer A) and aortas removed as described in Letters J M, et al (1999). Briefly, hearts, ascending and descending aortas (past the femoral junction) were excised and carefully cleaned. […] Once cleaned, aortas were separated from the heart taking care to include all aortic material while avoiding heart tissue. To obtain sufficient material for HPLC analysis (i.e., 30-40 mg wet weight tissue) it was necessary to pool 7-8 aortas. Separate pools of aortas were prepared for both groups and then immediately frozen in Buffer A and stored at −80° C. until analyses.
Pooled aortas were snap frozen in liquid nitrogen, pulverised, resuspended in Buffer A, homogenised and then either treated with metaphosphoric acid (for ascorbate) or extracted and the hexane fraction analysed for lipid-soluble antioxidants, cholesterol (C), choleseteryl esters (CE), lipid hydroperoxides (LOOH) and cholesteryl ester hydroxides (CE-OH) by HPLC as described in Methods Enzymol. 1994;233:469-489. LOOH and CE-OH were measured as markers of lipoprotein lipid oxidation, as they are the primary and major oxidation products formed when lipoproteins from apoE−/− mice undergo oxidation. […] All compounds were quantified by peak area comparison with authentic standards, and protein determined.
as §3

Setting [8] is: pooled plasma of bisphenol-treated mice, 5 mM AAPH, 37° C., 12 h.
Setting [9] is: lipid-standardised oxidised lipids, 1% probucol.

Take `CC(C)(C)c1cc(-c2cc(C(C)(C)C)c(O)c(C(C)(C)C)c2)cc(C(C)(C)C)c1O` [Bisphenol, bisphenol]: the “fate of the compound present in plasma during the oxidation period” value in test [1] was “oxidised into diphenoquinone”. Further, in test [2] (setting [8]), the “CE-OOH detected after 12 h of ex vivo oxidation” value was less than 1 µM and the “α-TOH after 12 h of ex vivo oxidation” value is “remained unaltered”. For the same compound, the “100% α-TOH level of plasma before oxidation” value in test [2] (pooled plasma of mice receiving bisphenol diet) stood at 20 ± 2 µM. Further, the Anti-TMP index in test [3] was determined as 3.2. The “TRAA (decay of tocopheroxyl radical; kobs(+)/kobs(−))” value in test [4] is “Immediate decay”.
In the case of `CC(C)(Sc1cc(C(C)(C)C)c(O)c(C(C)(C)C)c1)Sc1cc(C(C)(C)C)c(O)c(C(C)(C)C)c1` [Probucol, probucol], the “fate of the compound present in plasma during the oxidation period” value in test [1] is listed as “remained unchanged”. The “onset and initial rate of CE-O(O)H accumulation vs control plasma” value in test [1] (air) was “delayed and decreased”. For the same compound, in test [5], the “decrease of plasma vitamin E vs controls” value was approximately 4 fold and the “increase of plasma ascorbate vs controls” value is approximately 1.4 fold. For the same compound, in test [5] (plasma), the “Plasma Ascorbate” value is 129.2 µM, the “Plasma C18:2” value was 1.3 ± 0.8 mM, the “Plasma C20:4” value amounted to 0.2 ± 0.2 mM and the “Plasma C (cholesterol)” value came out at 2.6 ± 1.2 mM. In addition, in test [5] (plasma), the “Plasma CE-OH” value came out at 0.0002 mM, the “Plasma Total coenzyme Q” value was determined as 0.4 µM, the “Plasma Triglycerides” value came to 0.4 ± 0.0 mM and the “Plasma Ubiquinol-10” value stood at 0.01 ± 0.02 µM. Moreover, in test [5] (plasma), the “Plasma Ubiquinone-9” value stood at 0.3 ± 0.1 µM, the “Plasma Ubiquinone-10” value is 0.1 ± 0.1 µM and the “Plasma α-Tocopherol” value was found to be 10.5 ± 3.50 µM. Moreover, in test [6], the “content of plasma and aortic lipids and absolute amounts of oxidized lipids” value was “significantly decreased”; the “proportion of aortic lipids that was oxidized” value is reported as “not affected”. Besides, the “effect on atherosclerosis” value in test [6] (aortic denudation at week 3) was “significantly decreased”. Also, the “effect on aortic content of lipid standardised oxidized lipids” value in test [7] (1% probucol) is “did not affect”. Further, in test [7] (1% probucol, aorta), the “Aorta Ascorbate” value was 322 ± 320 pmol/mgp, the “Aorta C18:2” value came out at 12 ± 6 nmol/mgp, the “Aorta C20:4” value turned out to be 4.0 ± 2 nmol/mgp and the “Aorta CE-OH” value is reported as 0.17 ± 0.08 nmol/mgp. Besides, in test [7] (1% probucol, aorta), the “Aorta LOOH” value was determined as 0.080 nmol/mgp, the “Aorta Total coenzyme Q” value came to 139 ± 57 pmol/mgp, the “Aorta Ubiquinone-9” value is 114 ± 47 pmol/mgp and the “Aorta Ubiquinone-10” value worked out at 25 ± 10 pmol/mgp. Moreover, in test [7] (1% probucol, aorta), the “Aorta α-Tocopherol” value worked out at 380 pmol/mgp and the “Aorta α-Tocopherylquinone” value worked out at 30 ± 2 pmol/mgp. In test [7] (high fat diet with 1% probucol, aorta), the “Aorta C (cholesterol)” value was found to be 173 ± 60 nmol/mgp. Moreover, in test [7] (setting [9]), the “Aortic CE-OH/LH (× 10^3)” value is reported as 12.5 ± 6.7 × 10^3 and the “Aortic LOOH/LH (× 10^3)” value is recorded as 4.4^a × 10^3. Moreover, in test [7] (per protein, 1% probucol), the “decrease of aortic concentration of C vs controls” value stood at 5.6 fold, the “decrease of aortic concentration of total CoQ vs controls” value amounted to 2.5 fold and the “decrease of aortic concentration of vitamin E vs controls” value was determined as 2.9 fold.
